One experiment concerns the target PDE10 (Homo sapiens (Human), UniProt Q9Y233). Briefly: Phosphodiesterase (PDE) 10 assay with fluorescent substrate (IMAP, fluorescence polarization). The class given is biochemical. The settings on record: labeled cAMP 30 nM. The method, then: (§1) The IMAP system (Molecular Device) using fluorescence polarization (FP) as detection principle was used to measure enzyme activity. A fluorescent labeled cAMP was used as substrate for the reaction, generating a labeled AMP. The fluorescent AMP binds specifically to the large M(III)-based nano-particles which reduces the rotational speed of the substrate and thus increases its polarization. Detailed Method: The inhibition of PDE 2A or 10 enzyme activity was assessed using IMAP-Phosphodiesterase-cAMP fluorescence labeled substrate (Molecular Devices, Order No. R7506), IMAP TR-FRET screening express (Molecular Devices, Order No. R8160, the TR-FRET component will not be used) and PDE 2A or PDE10 protein expressed upon baculovirus infection in SF9 cells. […] The cells were collected by centrifugation and the pellet frozen in liquid nitrogen before it was resuspended in PBS containing 1% Triton X-100 and protease inhibitors. After 45 min incubation on ice, the cell debris was removed by centrifugation (13.000 rpm, 30 min). […] All reactions were performed in 384 well plates, Perkin Elmer black optiplates and IMAP reaction buffer with 0.1% Tween20 (kit component) Compounds were serial diluted in DMSO. […] Reaction is stopped by adding of 60 μl binding buffer for FP/cAMP (kit component).

A further experiment has as its target PDE 2A (Homo sapiens (Human), UniProt O00408). Briefly: Phosphodiesterase (PDE) 2A assay with fluorescent substrate (IMAP, fluorescence polarization). The class given is biochemical. Particulars: labeled cAMP 30 nM, read-out: PDE2 IC50. The protocol: as §1
(In general: Fluorescence polarisation rises when a labelled molecule tumbles more slowly, as on binding a larger partner.)

PDE10, sequence (Q9Y233 whole entry): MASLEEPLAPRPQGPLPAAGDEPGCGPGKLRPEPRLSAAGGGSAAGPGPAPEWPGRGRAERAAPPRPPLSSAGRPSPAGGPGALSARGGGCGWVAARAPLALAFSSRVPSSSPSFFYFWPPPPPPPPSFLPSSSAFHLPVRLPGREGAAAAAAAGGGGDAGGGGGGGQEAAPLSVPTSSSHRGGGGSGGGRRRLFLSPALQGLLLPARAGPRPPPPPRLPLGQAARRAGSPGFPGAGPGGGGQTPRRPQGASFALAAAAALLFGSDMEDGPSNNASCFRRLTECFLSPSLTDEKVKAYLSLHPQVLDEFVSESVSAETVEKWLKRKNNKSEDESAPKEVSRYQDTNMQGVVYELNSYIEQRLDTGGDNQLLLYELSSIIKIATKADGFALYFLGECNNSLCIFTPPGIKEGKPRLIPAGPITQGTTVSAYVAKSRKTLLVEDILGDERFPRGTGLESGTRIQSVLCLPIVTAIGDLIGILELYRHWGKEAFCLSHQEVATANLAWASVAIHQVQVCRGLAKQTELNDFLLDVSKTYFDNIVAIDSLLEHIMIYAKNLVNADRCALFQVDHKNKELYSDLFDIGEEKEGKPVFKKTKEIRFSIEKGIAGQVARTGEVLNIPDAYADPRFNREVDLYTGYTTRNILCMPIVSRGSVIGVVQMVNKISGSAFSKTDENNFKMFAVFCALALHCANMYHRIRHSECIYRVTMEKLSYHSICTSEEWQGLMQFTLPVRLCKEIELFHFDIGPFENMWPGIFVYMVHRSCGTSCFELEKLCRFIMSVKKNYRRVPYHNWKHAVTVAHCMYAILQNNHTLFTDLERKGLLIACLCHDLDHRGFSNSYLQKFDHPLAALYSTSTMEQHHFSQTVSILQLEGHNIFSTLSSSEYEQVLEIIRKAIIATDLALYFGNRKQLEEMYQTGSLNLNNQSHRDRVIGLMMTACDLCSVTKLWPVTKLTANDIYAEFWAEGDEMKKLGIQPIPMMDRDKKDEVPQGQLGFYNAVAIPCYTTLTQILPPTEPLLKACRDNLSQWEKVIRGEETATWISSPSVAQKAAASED
PDE 2A, sequence (O00408 whole entry, species assumed): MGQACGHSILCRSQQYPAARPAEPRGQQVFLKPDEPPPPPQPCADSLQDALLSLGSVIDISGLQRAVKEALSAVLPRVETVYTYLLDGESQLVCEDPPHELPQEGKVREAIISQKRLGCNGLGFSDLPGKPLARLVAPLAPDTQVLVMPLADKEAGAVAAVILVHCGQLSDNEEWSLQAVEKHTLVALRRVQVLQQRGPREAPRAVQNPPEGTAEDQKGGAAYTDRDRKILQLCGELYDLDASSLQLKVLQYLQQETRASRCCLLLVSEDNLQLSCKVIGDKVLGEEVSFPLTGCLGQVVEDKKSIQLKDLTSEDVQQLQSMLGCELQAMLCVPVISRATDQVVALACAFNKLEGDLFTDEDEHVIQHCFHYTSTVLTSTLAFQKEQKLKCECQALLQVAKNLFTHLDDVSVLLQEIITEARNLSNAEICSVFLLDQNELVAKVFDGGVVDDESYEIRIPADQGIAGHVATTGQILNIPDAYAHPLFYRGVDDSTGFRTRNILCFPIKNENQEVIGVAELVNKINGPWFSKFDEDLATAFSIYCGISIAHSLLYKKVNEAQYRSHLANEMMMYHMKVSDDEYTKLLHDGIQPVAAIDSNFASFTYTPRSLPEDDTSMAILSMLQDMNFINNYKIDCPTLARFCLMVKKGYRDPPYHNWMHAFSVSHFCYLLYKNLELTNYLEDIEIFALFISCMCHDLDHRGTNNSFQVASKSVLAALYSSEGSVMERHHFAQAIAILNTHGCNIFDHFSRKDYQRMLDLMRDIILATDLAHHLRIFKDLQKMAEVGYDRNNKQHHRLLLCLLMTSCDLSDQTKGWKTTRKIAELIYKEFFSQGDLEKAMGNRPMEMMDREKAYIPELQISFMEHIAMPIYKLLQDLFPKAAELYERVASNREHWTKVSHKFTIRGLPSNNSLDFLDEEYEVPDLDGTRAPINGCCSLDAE

One may read the IC50 as the concentration that inhibits the measured activity by half. For the molecule `Cc1nn2cc(C3CC3)cnc2c1C(=O)NC1(c2ccc(C(F)(F)F)cn2)CCOCC1O` (racemic) [Example 63], the IC50 at PDE10 was above 10000 nM; on PDE 2A, 124 nM.
On the same counts, the results for `O=C(NC1(c2ccc(C(F)(F)F)cc2)CCOCC1O)c1cnn2cc(C3CC3)cnc12` (stereo not shown) [Example 60] are above 10000 nM and 22 nM.

For the origin of these results see patent US10875867B2, “Cyclic ether derivatives of pyrazolo[1,5-a]pyrimidine-3-carboxyamide” (Boehringer Ingelheim International GmbH, priority 2015, dated 2020).
